According to patent US5393780A, “4-fluorobiphenyl derivatives” (priority 1993, dated 1995):

Columns and labels:
[1] = referred to JAMA (Japanese Edition) October 1991 Supplement, pages 42-47; cited from earlier work
[2] = tested on: cells of smooth muscles; details: advantage over pravastatin; cited from earlier work
[3] = tested on: cholesterol in the blood; details: cited from earlier work
[4] = Determination of Partition Coefficient (n-octanol/phosphoric acid buffer pH 7.0); format: physicochemical; details: P=Co/Cw; for logD: n-octanol/phosphate buffer
Procedure: Determination of Partition Coefficient
The partition coefficient of each of representative compounds synthesized in the above-mentioned Examples was determined in accordance with the method by Hansh et al. (J. Am. Chem. Soc., 86, 5175 (1964)).
More specifically, the compound to be tested was dissolved in either an n-octanol solution which was saturated with a phosphoric acid buffer solution of pH 7.0 (Solution A) or a phosphoric acid buffer solution of pH 7.0 saturated with n-octanol (Solution B).
5 ml of the solution (Solution A or Solution B) in which the compound was dissolved and 5 ml of the solution (Solution B or Solution A) in which the compound was not dissolved were placed in a screw vial tube, and shaken for 30 minutes. This mixed solution was centrifuged for 15 minutes, and was then allowed to stand. The mixed solution was separated into two phases, that is, a water phase and a n-octanol phase.
The concentration of the compound in the water phase was determined by the UV method, and the concentration of the compound in the n-octanol phase was determined by deducting the concentration of the compound in the water phase from the concentration of the compound in the initially mixed solution (Solution A and Solution B).
The partition coefficient of the compound was calculated in accordance with the following formula:
Partition coefficient (P)=Co/Cw
wherein Co is the concentration of the compound in the n-octanol phase, and Cw is the concentration of the compound in the water phase.

[5] = tested on: biosynthesis of sterol; test: Determination of Inhibition of Sterol Synthesis (14C-acetic acid, liver, after oral dosing); format: in vivo, SD rat; details: 14C-acetic acid five hours later
Procedure: Determination of Inhibition of Sterol Synthesis
Representative compounds (0.3 mg/5 ml/kg) suspended in a 5% arabic gum solution were orally given to SD rate weighing 150 to 200 g.
Five hours later, ^14 C-acetic acid (100 μCi/kg) was intraperitoneally injected, and furthermore one hour later, liver was removed to determine the inhibitory activity of each of the compounds on the biosynthesis of sterol.

[6] = target: T1, HMG-CoA Reductase (Rattus norvegicus, UniProt P51639); test: biochemical; details: read-out: HMG-CoA Reductase Inhibition %
T1 sequence (P51639 1-887): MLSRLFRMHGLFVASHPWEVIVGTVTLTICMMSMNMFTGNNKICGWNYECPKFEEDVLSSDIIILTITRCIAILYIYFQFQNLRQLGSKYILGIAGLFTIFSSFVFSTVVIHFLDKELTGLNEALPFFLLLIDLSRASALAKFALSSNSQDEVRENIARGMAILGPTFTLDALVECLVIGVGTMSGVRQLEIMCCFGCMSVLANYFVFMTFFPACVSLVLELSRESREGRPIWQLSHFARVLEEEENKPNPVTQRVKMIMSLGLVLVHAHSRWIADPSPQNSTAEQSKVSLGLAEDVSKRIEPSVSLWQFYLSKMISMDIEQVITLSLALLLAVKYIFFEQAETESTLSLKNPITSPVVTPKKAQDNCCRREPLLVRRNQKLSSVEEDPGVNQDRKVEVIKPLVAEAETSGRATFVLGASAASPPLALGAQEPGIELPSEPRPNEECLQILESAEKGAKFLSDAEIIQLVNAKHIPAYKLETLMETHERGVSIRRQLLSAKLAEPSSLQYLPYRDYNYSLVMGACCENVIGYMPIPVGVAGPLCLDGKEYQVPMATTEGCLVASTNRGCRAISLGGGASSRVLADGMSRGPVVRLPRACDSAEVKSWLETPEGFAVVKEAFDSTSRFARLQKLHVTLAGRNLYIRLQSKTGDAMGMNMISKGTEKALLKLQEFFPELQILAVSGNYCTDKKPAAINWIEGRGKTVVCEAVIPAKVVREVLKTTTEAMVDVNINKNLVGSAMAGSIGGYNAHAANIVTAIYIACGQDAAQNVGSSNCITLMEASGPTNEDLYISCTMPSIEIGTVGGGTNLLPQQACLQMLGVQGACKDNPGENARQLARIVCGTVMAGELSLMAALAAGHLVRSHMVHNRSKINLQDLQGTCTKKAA
Procedure: Determination of Inhibitory Activity on HMG-CoA Reductase
The inhibitory effect on HMG-CoA Reductase of each of representative examples of the 4-fluorobiphenyl derivatives prepared in the above-discussed examples was determined in accordance with the method described in Journal of Biological Chemistry (J. Biol. Chem.) Vol. 234, page 2835 (1959).

[7] = literature reports; cited from earlier work
[8] = cited from earlier work
[9] = tested on: liver cells and non-liver cells; details: cited from earlier work
[10] = target: T2, HMG-CoA Reductase (Homo sapiens, UniProt P04035); details: cited from earlier work
T2 sequence (P04035 1-888): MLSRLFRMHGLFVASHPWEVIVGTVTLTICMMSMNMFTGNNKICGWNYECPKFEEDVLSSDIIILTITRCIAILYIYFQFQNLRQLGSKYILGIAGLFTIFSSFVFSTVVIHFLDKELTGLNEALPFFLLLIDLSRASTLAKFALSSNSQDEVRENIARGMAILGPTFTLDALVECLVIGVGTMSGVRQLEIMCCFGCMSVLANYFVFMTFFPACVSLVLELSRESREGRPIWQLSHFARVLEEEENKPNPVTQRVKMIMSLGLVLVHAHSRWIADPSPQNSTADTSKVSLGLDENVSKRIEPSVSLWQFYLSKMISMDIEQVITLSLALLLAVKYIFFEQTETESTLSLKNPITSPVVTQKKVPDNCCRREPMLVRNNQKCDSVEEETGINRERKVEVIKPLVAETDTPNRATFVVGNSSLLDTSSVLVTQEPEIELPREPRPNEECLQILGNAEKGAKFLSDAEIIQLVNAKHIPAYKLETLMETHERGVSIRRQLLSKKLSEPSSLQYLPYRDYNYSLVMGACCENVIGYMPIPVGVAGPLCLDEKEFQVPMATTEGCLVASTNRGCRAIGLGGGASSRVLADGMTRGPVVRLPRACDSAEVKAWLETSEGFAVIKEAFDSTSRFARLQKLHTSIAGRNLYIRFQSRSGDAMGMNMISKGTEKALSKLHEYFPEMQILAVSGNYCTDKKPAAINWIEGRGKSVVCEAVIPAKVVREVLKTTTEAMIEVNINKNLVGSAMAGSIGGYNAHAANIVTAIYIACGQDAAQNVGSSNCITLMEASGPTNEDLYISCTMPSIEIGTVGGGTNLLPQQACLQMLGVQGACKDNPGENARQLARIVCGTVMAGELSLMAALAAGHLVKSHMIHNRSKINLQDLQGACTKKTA

SMILES	cholesterol lowering effect [3]	Sterol Synthesis Inhibition % ([5]; Administered amount 0.3 mg/kg) [%]	logD [4]	inhibition at 0.1 µM [6] [%]	other results
CCC(C)(C)C(=O)O[C@H]1C[C@@H](C)C=C2C=C[C@H](C)[C@H](CC[C@@H]3C[C@@H](O)CC(=O)O3)[C@H]21 [Simvastatin]	strong cholesterol lowering effect	1	–	–	Partition Coefficient (literature) [1]: 75.8; cytostatic function with respect to the cells of smooth muscles [2]: antiarteriosclerosis effect because of its cytostatic function with respect to the cells of smooth muscles; Partition Coefficient ([4]; ring-opened type sodium salt): 74; Sterol Synthesis Inhibition % ([5]; Administered amount 1 mg/kg): 41%
COCCOCCOc1cc(-c2ccc(F)cc2)c(/C=C/C(O)CC(O)CC(=O)O)c(C(C)C)c1 (centres unmarked)	–	–	0.519	–	–
COCCOc1cc(-c2ccc(F)cc2)c(/C=C/C(O)CC(O)CC(=O)[O-])c(C(C)C)c1.[Na+] (centres unmarked)	–	30	0.716	96	–
CC[C@H](C)C(=O)O[C@H]1C[C@@H](C)C=C2C=C[C@H](C)[C@H](CC[C@@H]3C[C@@H](O)CC(=O)O3)[C@H]21 [lovastatin]	strong cholesterol lowering effect	–	–	–	side effects [7]: myositis and sleep disorder; water-solubility / lipid-solubility [8]: highly lipid-soluble; incorporation into liver / non-liver cells [9]: transferred into both liver cells and non-liver cells
CC(C)c1cc(OCc2cccnc2)cc(-c2ccc(F)cc2)c1/C=C/C(O)CC(O)CC(=O)O (centres unmarked)	–	–	1.41	95	–
CC(C)c1cc(OCc2ccncc2)cc(-c2ccc(F)cc2)c1/C=C/C(O)CC(O)CC(=O)O (centres unmarked)	–	–	1.48	96	–
CC(C)c1cc(OCc2ccccn2)cc(-c2ccc(F)cc2)c1/C=C/C(O)CC(O)CC(=O)O (centres unmarked)	–	–	1.43	95	–
CC(C)c1cc(OCCO)cc(-c2ccc(F)cc2)c1/C=C/C(O)CC(O)CC(=O)[O-].[Na+] (centres unmarked)	–	40	0.114	98	–
CC[C@H](C)C(=O)O[C@H]1C[C@H](O)C=C2C=C[C@H](C)[C@H](CC[C@@H](O)C[C@@H](O)CC(=O)O)[C@H]21 [Pravastatin]	–	–	-0.444	88	Partition Coefficient (literature) [1]: 0.34; water-solubility / lipid-solubility [8]: highly water-soluble; incorporation into liver / non-liver cells [9]: not incorporated into histoblasts other than those of liver; Partition Coefficient [4]: 0.36; Sterol Synthesis Inhibition % ([5]; Administered amount 1 mg/kg): 16%
CC[C@H](C)C(=O)O[C@H]1CCC=C2C=C[C@H](C)[C@H](CC[C@@H]3C[C@@H](O)CC(=O)O3)[C@H]21 [ML-236B, Mevastatin]	capable of lowering the concentration of cholesterol in the blood	–	–	–	inhibitory effect on HMG-CoA reductase [10]: competitive inhibitory effect on HMG-CoA reductase
